Holding throughout (type): cell-based
The nature of series [1]: Compound toxicity in the attachment assay, sister plates, MTS dye reduction. As to conditions: human, HeLa CD4 LTR β-gal cells, read-out: TC50. The procedure:
At assay termination the assay plates were stained with the soluble tetrazolium-based dye MTS (CellTiter96® Reagent Promega) to determine cell viability and quantify compound toxicity. MTS is metabolized by the mitochondria enzymes of metabolically active cells to a soluble formazan product, allowing the rapid quantitative analysis cell viability and compound cytotoxicity. […] At termination of the assay 20 μL of MTS reagent was added per well and incubated for 4 h at 37° C. Adhesive plate sealers were used in place of the lids, the sealed plate was inverted several times to mix the soluble formazan product and the plate was read spectrophotometrically at 490 nm with a Molecular Devices Vmax plate reader.
The attachment assay was performed with the HeLa CD4 LTR β-gal cells available from the AIDS Research and Reference Reagent Repository. […] HeLa CD4 LTR β-gal cells express cell surface CD4 and contain an LTR β-galactosidase reporter construct. Upon infection either the Tat protein incorporated into the virion or new Tat produced following virus integration and transcription trans-activates the LTR β-gal reporter, leading to expression of the β-galactosidase enzyme. HeLa CD4 LTR β-gal cells are routinely cultured with the required selection antibiotics and screened for mycoplasma contamination. Twenty-four h prior to initiation of the assay cells were trypsinized, counted and 1×10^4 cells placed in a 0.2 cm well in media without selection antibiotics. […] A known titer of virus was then added to the wells and the incubation continued for 1 h. At the end of the incubation the wells were washed 6 times with media and the culture continued for 48 h. At 48 h the wells were washed one time with PBS and β-galactosidase enzyme expression determined by chemiluminescence per manufacturers instructions (Tropix Gal-screen™, Tropix, Bedford, Mass.). Compound toxicity was monitored on sister plates using MTS dye reduction.
Background: Tetrazolium dyes change colour on reduction, which living cells bring about.

A further series relates to IIIB strain of HIV-1. Description: Virus attachment assay, HeLa CD4 LTR β-gal cells (Experimental Example 2). As to conditions: Human immunodeficiency virus 1, IIIB, HeLa, read-out: Attachment Assay IC50. The procedure: This assay detects compounds that block virus attachment using HeLa CD4 LTR β-gal cells. HeLa CD4 LTR β-gal cells were cultured with selection antibiotics. Twenty-four h prior to initiation of the assay, the cells were trypsinized, counted and plated in a 0.2 cm well in media without selection antibiotics. At 24 h media is removed and compound in media placed on the cells and incubated for 15 min at 37° C. A known titer of the IIIB strain of HIV-1 was then added to the wells and the incubation continued for 1 to 2 h. At the end of the incubation the wells were washed 2 times with media and the culture continued for 40 to 48 h. At termination of the assay, media is removed and β-galactosidase enzyme expression determined by chemiluminescence per manufacturer's instructions (Tropix Gal-screen, Bedford Mass.). Compound toxicity is monitored on a sister plate by XTT or MTS dye reduction. All determinations are performed in triplicate with serial_Log10 dilution of the test materials.

For series [2], the system named is cell-to-cell fusion mediated by HIV-1 Env and CD4. Description: Fusion assay, HeLa CD4 LTR β-gal and HL2/3 cells (Experimental Example 2). As to conditions: Human immunodeficiency virus 1, HL2/3, read-out: Fusion Assay IC50. The procedure: (§1) The fusion assay assesses the ability of compounds to block cell-to-cell fusion mediated by HIV-1 Env and CD4 expressed on separate cells. This assay is sensitive to inhibitors of both the gp 120/CD4 interaction and inhibitors of the X4 coreceptor. HeLa CD4 LTR β-gal cells were plated in microtiter wells and diluted compounds are added and allowed to incubate at 37° C. for 1 hr prior to the addition of HL2/3 cells. The incubation was then continued for 40 to 48 h, after which fusion is monitored by measurement of β-galactosidase enzyme expression, detectable by chemiluminescence (Tropix Gal-screen, Tropix, Bedford, Mass.). Compound toxicity is monitored on a sister plate using XTT or MTS dye reduction. All determinations are performed in triplicate with serial_Log10 dilution of the test materials.

Series [3] in a line: Compound toxicity in the fusion assay, sister plate, XTT or MTS (Example 2). To be noted: human, HeLa CD4 LTR β-gal cells, read-out: Fusion Assay TC50. The procedure:
as §1

In series [4] the test system is interaction of HIV gp 120 with CD4 (HeLa CD4 LTR β-gal / HL2/3 cell fusion). Description: HeLa CD4 LTR β-gal/HL2/3 HIV-1 fusion assay (Experimental Example 1). As to conditions: fusion assay. An excerpt: This assay uses the HeLa CD4 LTR β-gal and HL2-3 cells available from the AIDS Research and Reference Reagent Repository. The fusion assay utilizes HeLa CD4 LTR β-gal cells with HL2/3 cells as a fusion partner via the interaction of HIV gp 120 with CD4. HL2/3 cells express HIV-1 Env on their cell surface and contain an HIV-1 Tat expression cassette. Upon syncytium formation and plasma membrane fusion, cytoplasmic mixing of the HL2/3 and HeLa CD4 LTR b-gal cell contents results in the transactivation of the LTR and β-Galactosidase expression is then directly related to […] cell membrane fusion. Thus, these two mechanistic assays can be used to confirm and identify a virus entry-based target of the compound. Additionally, because the attachment assay uses cell-free virus this assay can be used to show applicability to cell-free virus transmission.
Twenty-four h prior to initiation of the assay cells were trypsinized, counted and 5×10^3 cells placed in a 0.2 cm well in media without selection antibiotics. To initiate the fusion assay HeLa CD4 LTR β-gal (5×10^3 cells per 0.2 cm well) were incubated with compound for 1 h at 37° C. HL2/3 cells (5×10^3) were added to the 0.2 cm well and the incubation continued for 48 h. At 48 h the wells were washed 1 time with PBS and β-galactosidase enzyme expression determined by chemiluminescence per manufacturers instructions (Tropix Gal-screen™, Tropix, Bedford, Mass.). Compound toxicity was monitored on sister plates using MTS dye reduction.
In addition to assessing inhibition of attachment with HeLa CD4 LTR β-gal cells a virus fusion assay was perfoed using HeLa CD4 LTR β-gal and HL2/3 cells. No timed addition of compound was employed, but rather the assay was performed to verify the effects of the compounds on the HeLa CD4 LTR β-gal cells β-galactosidase expression.

Like-named read-outs stand apart in the source and are kept apart here.

Take `Cc1c(O)cc(C(C)(C)CCCC(C)C)cc1O` [IMG510, 2-Methyl-5-(1,1,5-trimethylhexyl)resorcinol]: the CC50 at 48 h in series [1] (Experiment 1, pretreat 0 h) is over 50 µM; in series [1] (Experiment 1, pretreat 4 h), over 50 µM; in series [1] (Experiment 1, pretreat 24 h), over 50 µM; in series [1] (Experiment 2, pretreat 0 h), over 50 µM; in series [1] (Experiment 2, pretreat 4 h), over 50 µM; in series [1] (Experiment 2, pretreat 24 h) it was 39.4 µM. In addition, the IC50 with IIIB strain of HIV-1 was found to be 50.8 µM; in series [2], 1.36 µM. Besides, the CC50 in series [3] is over 100 µM.
As to `COc1cc(C(C)(C)CCCC(C)C)cc(OC)c1OC` [IMG507, 1-(1,1,5-Trimethylhexyl)-3,4,5-trimethoxybenzene], the CC50 at 48 h in series [1] (Experiment 1, pretreat 0 h) was over 50 µM; in series [1] (Experiment 1, pretreat 4 h), over 50 µM; in series [1] (Experiment 1, pretreat 24 h), over 50 µM; in series [1] (Experiment 2, pretreat 0 h) it was over 50 µM; in series [1] (Experiment 2, pretreat 4 h), over 50 µM; in series [1] (Experiment 2, pretreat 24 h) it was over 50 µM.
`CC(C)=CCCC1(C)CCc2c(O)cc(C(C)(C)CCCC(C)C)cc2O1` (stereo not drawn) [IMG508, 3,4-Dihydro-2-methyl-2-(4-methyl-3-pentenyl)-7-(1,1,5-trimethylhexyl)-2H-1-benzopyran-5-ol]: the CC50 at 48 h is over 50 µM in series [1] (Experiment 1, pretreat 0 h); over 50 µM in series [1] (Experiment 1, pretreat 4 h); over 50 µM in series [1] (Experiment 1, pretreat 24 h); over 50 µM in series [1] (Experiment 2, pretreat 0 h); 29 µM in series [1] (Experiment 2, pretreat 4 h); 12.2 µM in series [1] (Experiment 2, pretreat 24 h).
For `C=C(C)[C@@H]1CCC(C)=C[C@H]1c1c(O)cc(CCCCC)cc1O` [Cannabidiol, reference compound], the CC50 at 48 h in series [1] (Experiment 1, pretreat 0 h) was over 50 µM; in series [1] (Experiment 1, pretreat 4 h) it was over 50 µM; in series [1] (Experiment 1, pretreat 24 h), over 50 µM; in series [1] (Experiment 2, pretreat 0 h) it was over 50 µM; in series [1] (Experiment 2, pretreat 4 h), 41 µM; in series [1] (Experiment 2, pretreat 24 h) it was 33 µM. Moreover, in series [4], the “Comments: suppression of β-galactosidase activity” value (“Comments: suppression” below) was “Suppression of β-galactosidase”.
Take `CC1=CCC2C(C1)c1c(O)cc(C(C)(C)CCCC(C)C)cc1OC2(C)C` (stereo not drawn) [IMG509, 3-Norpentyl-3-(1,1,5-trimethylhexyl)-Δ8-tetrahydrocannabinol]: the CC50 at 48 h in series [1] (Experiment 1, pretreat 0 h) was over 50 µM; in series [1] (Experiment 1, pretreat 4 h) it was over 50 µM; in series [1] (Experiment 1, pretreat 24 h) it was over 50 µM; in series [1] (Experiment 2, pretreat 0 h), over 50 µM; in series [1] (Experiment 2, pretreat 4 h), 37 µM; in series [1] (Experiment 2, pretreat 24 h), 14.9 µM. The “Comments: suppression” value in series [4] was “Suppression of β-galactosidase”. In addition, the IC50 in the series with IIIB strain of HIV-1 amounted to 48.4 µM; in series [2] it was 1.21 µM. Besides, the CC50 in series [3] amounted to 18.4 µM.
As for `Cc1ccc2c(c1)-c1c(O)cc(C(C)(C)CCCC(C)C)cc1OC2(C)C` [IMG511, 3-Norpentyl-3-(1,1,5-trimethylhexyl)cannabinol], the CC50 at 48 h in series [1] (Experiment 1, pretreat 0 h) was over 50 µM; in series [1] (Experiment 1, pretreat 4 h), over 50 µM; in series [1] (Experiment 1, pretreat 24 h), over 50 µM; in series [1] (Experiment 2, pretreat 0 h), over 50 µM; in series [1] (Experiment 2, pretreat 4 h), over 50 µM; in series [1] (Experiment 2, pretreat 24 h), 11.1 µM. For the same molecule, in series [4], the “Comments: suppression” value is on record as “Suppression of β-galactosidase”. The IC50 with IIIB strain of HIV-1 is 46.3 µM; in series [2] it was 0.92 µM. For the same molecule, the CC50 in series [3] was determined as 20.7 µM.

Broadly, the IC50 is the concentration that gives 50% inhibition.

Source of the values: patent US20030232101A1, “Topical formulations of resorcinols and cannibinoids and methods of use” (Immugen Pharmaceuticals, Inc., priority 2002, published 2003).
